Experimental data reported in paper PMC11233931, “Remodeling tumor‐associated macrophage for anti‐cancer effects by rational design of irreversible inhibition of mitogen‐activated protein kinase‐activated protein kinase 2” (MedComm, 2024).

Legend:
[1] = biological target: T1, 380 human recombinant protein kinases (Homo sapiens, UniProt Q14289); experiment: Eurofins kinase selectivity profile against 380 other human recombinant kinases (Table S2); assay type: biochemical; settings: Pyk2(h), read-out: Inhibition rate
T1 construct: purchased Eurofins (Celle Lévescault)
T1 sequence (Q14289 whole entry): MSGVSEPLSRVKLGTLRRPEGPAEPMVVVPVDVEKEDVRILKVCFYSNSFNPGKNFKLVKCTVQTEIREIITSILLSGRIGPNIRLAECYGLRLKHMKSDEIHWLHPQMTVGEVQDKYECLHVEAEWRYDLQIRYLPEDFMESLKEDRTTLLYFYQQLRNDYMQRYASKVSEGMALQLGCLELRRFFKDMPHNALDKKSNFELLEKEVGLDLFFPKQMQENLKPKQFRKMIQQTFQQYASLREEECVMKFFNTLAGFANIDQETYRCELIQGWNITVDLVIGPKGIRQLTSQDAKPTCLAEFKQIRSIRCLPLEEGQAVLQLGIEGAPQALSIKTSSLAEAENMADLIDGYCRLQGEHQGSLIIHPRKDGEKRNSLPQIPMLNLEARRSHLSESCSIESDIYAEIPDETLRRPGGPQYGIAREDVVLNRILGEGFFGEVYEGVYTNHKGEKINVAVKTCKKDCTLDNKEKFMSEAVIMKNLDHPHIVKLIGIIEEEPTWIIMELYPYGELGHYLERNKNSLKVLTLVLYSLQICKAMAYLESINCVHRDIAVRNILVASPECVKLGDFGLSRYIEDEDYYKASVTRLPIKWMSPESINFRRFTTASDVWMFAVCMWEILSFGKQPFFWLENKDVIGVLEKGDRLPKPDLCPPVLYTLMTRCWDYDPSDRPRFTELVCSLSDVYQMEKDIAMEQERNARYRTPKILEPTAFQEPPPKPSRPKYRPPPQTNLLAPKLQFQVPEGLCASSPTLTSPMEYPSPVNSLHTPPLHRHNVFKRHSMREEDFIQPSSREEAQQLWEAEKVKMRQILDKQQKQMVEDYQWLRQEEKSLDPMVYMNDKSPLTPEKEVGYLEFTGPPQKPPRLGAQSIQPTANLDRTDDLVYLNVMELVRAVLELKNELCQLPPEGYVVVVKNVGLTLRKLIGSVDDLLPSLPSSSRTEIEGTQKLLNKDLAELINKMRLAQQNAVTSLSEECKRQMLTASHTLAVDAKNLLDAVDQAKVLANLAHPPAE
Protocol: (§1) Subsequently, to ascertain whether the high potency of compound 11 was specific for MK2, an additional 380 human recombinant protein kinases were screened.
(§2) To assess the impact of various compounds on MK2 kinase activity, we utilized the ADP‐Glo Assay Kit (Promega) following the manufacturer's instructions. Luminescence measurements were taken using a SpectraMax Paradigm reader. The inhibition percentage was calculated using the following formula: ((specific signalDMSO control − specific signal inhibitor)/(specific signalDMSO control)) × 100%. The IC50 values were determined employing dose–response curve fitting via Prism (Graph Pad). Additionally, Eurofins company (Celle Lévescault) conducted the analysis on compound 11’s inhibitory activity against 380 other human recombinant kinases at various concentrations.

[2] = biological target: T2, 380 human recombinant protein kinases (Homo sapiens, UniProt Q8N4C8); experiment: as above; assay type: biochemical; settings: MINK(h), read-out: Inhibition rate
T2 construct: purchased Eurofins (Celle Lévescault)
T2 sequence (Q8N4C8 whole entry): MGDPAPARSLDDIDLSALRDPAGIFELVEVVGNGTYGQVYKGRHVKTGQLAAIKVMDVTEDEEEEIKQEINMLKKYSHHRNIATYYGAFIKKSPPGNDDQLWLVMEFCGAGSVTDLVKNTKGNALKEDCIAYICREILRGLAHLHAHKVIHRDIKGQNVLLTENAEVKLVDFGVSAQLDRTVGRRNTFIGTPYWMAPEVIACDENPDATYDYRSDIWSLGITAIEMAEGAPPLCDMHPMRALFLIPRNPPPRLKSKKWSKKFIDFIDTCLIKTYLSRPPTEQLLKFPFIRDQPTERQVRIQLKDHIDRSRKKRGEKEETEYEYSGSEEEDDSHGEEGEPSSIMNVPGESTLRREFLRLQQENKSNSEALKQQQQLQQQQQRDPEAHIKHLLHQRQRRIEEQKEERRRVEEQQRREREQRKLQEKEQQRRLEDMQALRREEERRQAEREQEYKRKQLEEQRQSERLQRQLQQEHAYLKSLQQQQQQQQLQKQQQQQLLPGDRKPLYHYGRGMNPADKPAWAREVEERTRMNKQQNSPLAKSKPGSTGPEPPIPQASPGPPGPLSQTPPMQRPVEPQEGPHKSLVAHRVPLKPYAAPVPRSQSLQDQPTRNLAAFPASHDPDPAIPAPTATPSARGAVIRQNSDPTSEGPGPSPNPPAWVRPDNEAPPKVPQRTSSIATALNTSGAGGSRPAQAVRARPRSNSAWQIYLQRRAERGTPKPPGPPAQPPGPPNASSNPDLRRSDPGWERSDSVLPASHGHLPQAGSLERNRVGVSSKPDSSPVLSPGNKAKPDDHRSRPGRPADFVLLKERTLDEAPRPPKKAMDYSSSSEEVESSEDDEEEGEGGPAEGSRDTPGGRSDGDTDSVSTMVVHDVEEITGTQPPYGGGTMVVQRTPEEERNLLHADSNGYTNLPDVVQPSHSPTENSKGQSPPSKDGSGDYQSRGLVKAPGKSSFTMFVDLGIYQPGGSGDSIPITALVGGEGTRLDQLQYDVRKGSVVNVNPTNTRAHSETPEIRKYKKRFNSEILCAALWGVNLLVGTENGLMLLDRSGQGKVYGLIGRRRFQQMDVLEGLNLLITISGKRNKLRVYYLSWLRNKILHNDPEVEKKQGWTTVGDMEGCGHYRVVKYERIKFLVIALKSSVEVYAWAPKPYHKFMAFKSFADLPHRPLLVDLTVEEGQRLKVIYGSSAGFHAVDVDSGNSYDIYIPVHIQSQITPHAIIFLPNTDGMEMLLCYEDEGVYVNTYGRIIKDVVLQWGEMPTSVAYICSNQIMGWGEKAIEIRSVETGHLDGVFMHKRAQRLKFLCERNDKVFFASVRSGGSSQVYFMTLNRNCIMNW
Protocol: as §1, §2

[3] = biological target: T3, 380 human recombinant protein kinases (Homo sapiens, UniProt Q9NYY3); experiment: as above; assay type: biochemical; settings: Snk(h), read-out: Inhibition rate (%)
T3 construct: purchased Eurofins (Celle Lévescault)
T3 sequence (Q9NYY3 whole entry): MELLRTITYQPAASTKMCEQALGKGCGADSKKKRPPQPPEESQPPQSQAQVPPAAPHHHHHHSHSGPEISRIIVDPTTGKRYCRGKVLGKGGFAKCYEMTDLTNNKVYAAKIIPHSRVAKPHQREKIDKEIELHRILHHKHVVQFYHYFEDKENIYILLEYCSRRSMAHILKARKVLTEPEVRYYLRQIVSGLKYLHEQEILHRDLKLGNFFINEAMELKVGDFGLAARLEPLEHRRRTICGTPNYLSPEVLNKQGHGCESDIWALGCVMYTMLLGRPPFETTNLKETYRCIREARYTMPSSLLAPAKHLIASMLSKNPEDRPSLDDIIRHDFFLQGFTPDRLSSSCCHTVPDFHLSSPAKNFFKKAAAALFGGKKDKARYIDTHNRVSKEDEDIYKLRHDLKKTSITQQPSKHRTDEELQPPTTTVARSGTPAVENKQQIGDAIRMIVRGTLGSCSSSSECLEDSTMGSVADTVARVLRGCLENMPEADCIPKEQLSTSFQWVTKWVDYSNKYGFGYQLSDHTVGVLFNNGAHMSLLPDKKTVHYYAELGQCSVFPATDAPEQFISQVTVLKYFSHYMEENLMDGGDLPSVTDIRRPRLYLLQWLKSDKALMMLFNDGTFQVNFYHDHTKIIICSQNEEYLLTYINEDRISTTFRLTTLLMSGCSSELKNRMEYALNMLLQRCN
Protocol: as §1, §2

MK3 = biological target: T4, MK3 (Homo sapiens, UniProt Q16644); experiment: Eurofins kinase selectivity profile, MK3; assay type: biochemical
T4 construct: purchased Eurofins (Celle Lévescault)
T4 sequence (Q16644 whole entry): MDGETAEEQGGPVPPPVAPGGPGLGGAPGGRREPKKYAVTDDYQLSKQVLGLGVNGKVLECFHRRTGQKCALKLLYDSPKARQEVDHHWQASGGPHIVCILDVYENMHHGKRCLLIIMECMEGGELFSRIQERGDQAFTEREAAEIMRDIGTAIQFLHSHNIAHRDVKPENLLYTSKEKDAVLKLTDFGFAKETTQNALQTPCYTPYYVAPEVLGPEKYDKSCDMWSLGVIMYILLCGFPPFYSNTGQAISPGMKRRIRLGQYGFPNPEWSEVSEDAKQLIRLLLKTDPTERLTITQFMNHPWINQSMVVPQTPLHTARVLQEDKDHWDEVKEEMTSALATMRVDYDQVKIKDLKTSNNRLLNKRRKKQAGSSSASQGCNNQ
Protocol: as §1, §2

MK2 = MK2 (Homo sapiens, UniProt P49137); experiment: Kinase kinetic analysis of irreversible inhibition (Mobility Shift Assay, preincubation then 100-fold dilution); assay type: biochemical; settings: preincubation at 100 times the IC50, monitored continuously
Sequence of MK2 (P49137 whole entry): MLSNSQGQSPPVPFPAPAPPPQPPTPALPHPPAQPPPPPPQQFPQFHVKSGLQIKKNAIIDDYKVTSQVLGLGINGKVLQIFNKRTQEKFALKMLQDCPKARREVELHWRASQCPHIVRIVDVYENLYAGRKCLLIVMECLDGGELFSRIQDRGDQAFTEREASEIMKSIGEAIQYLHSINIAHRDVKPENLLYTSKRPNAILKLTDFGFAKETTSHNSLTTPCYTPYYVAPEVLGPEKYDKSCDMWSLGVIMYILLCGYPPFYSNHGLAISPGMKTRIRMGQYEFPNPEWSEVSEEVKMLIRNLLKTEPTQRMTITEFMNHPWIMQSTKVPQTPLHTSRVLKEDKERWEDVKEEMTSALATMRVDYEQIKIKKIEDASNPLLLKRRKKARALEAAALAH
Source text: To assess its role as an irreversible MK2 kinase inhibitor, we conducted a kinetic study on compound 11. The well‐known reversible ATP‐competitive MK2 inhibitor, PF‐3644022, served as a negative control. […] The kinase‐inhibitor mixture was subsequently diluted by a factor of 100 with a reaction buffer that included both substrate peptide and ATP. Under these circumstances, the activity of MK2 kinase was continuously monitored by assessing the phosphorylated substrate percentage. […] The enzyme activity curve almost overlapped with the curve of background group, which included only the substrate peptide without inhibitors and MK2 kinase.
In the kinase kinetic analysis to elucidate the irreversible inhibition of MK2 by compound 11, a Mobility Shift Assay was conducted. […] The EZ Reader (Caliper Life Sciences, MA) was then used to assess the kinase activity of the mixture, which was monitored continuously for 1 hour.

[4] = test system: TNF-α, IL-6 and IL-1β mRNA in RAW264.7 macrophage cell line; experiment: RT-PCR of cytokine mRNA in LPS-stimulated RAW264.7 macrophages; assay type: cell-based, mouse; settings: 3 h pre-treatment, LPS 100 ng/mL 3 h
Source text: MK2 is recognized for inducing the production of pathological cytokines that fuel inflammation, including IL‐6, TNF‐α, and IL‐1β. These cytokines are the classic downstream target gene of MK2 and are identified as significant contributors to the risk of inflammation‐driven cancer,[34], [35], [36] such as colorectal cancer and hepatocellular carcinoma. Therefore, we assessed the transcriptional levels of these typical downstream cytokines in human monocytic THP‐1 cell‐line‐derived macrophage and the mouse RAW264.7 macrophage cell line under the influence of compound 11. […] Taken together, our findings corroborate that compound 11 effectively impedes the transcription and production of these key MK2 downstream pro‐inflammatory cytokines.
FIGURE 4 Targeting cellular MK2 signaling with irreversible inhibition by compound 11. […] (C) The inhibitory effects of compound 11 on TNF‐α and IL‐6 production in LPS‐stimulated RAW264.7 macrophages for 24 h, measured by ELISA. […]
Total RNA was extracted from cultured cells using the EZ‐press RNA Purification Kit (EZBioscience). Complementary DNA was synthesized using the ABScript III RT Master Mix for qPCR with gDNA remover (ABclonal Technology) and was quantified with primers listed in Table S5. The relative mRNA expression levels were quantified through qPCR using the SYBR green gene expression assay (ABclonal Technology).

[5] = Cytotoxicity assays, summary over all cell lines; assay type: cell-based; settings: range over three normal and six tumor cell lines
Source text: MK2, as a pivotal regulator of the well‐acknowledged p38 inflammation signaling pathway, is increasingly recognized for its critical role in the initiation and progression of cancer. Through an analysis of the clinical data from the TCGA database, we found the significant impact of MK2 on cancer. […] Moreover, macrophages are abundant in cancer, and such abundance correlates with poor prognosis in most malignancie.[17], [18], [19], [20] […] Additionally, the knockdown of MK2 using specific siRNA in macrophages also led to the downregulation of M2 markers. […] Moreover, compound 11’s effect on macrophages extended to inhibition of typical proinflammatory cytokines and crucial factors in inflammation‐driven tumorigenesis. […] These findings bolster the rationale for pursuing the development and application of MK2 inhibitors in the treatment of inflammation‐driven or macrophage‐rich cancers.
Cells was plated into 96-well plates and incubated overnight prior to introduction of varying concentrations of compounds or control solvent. Following a 72-hour exposure period, cell viability was determined using a Cell Counting Kit-8 assay (Life-iLab, China). Dose-response curves were fitted using a four-parameter method facilitated by SoftMax Pro, which was subsequently used for the computation of IC50 values.

Compound: C=CC(=O)Nc1cc(-c2cc(-c3cc4c([nH]3)CCNC4=O)ccn2)ccc1OC(F)(F)F [compound 11]
- inhibition at 0.01 µM ([1]; 10 nM): -11%
- inhibition at 0.1 µM ([1]; 100 nM): -5%
- inhibition at 1 µM ([1]; 1000 nM): 6%
- inhibition at 0.01 µM ([2]; 10 nM): -10%
- inhibition at 0.1 µM ([2]; 100 nM): 3%
- inhibition at 1 µM ([2]; 1000 nM): 31%
- inhibition at 0.01 µM ([3]; 10 nM): 0%
- inhibition at 0.1 µM ([3]; 100 nM): 10%
- inhibition at 1 µM ([3]; 1000 nM): 15%
- IC50 (MK3): > 100 nM
- inhibition at 0.001 µM (MK3; MAPKAP-K3(h), 1 nM, read-out: Inhibition rate): -10%
- inhibition at 0.01 µM (MK3; MAPKAP-K3(h), 10 nM, read-out: Inhibition rate): 1%
- inhibition at 0.1 µM (MK3; MAPKAP-K3(h), 100 nM, read-out: Inhibition rate): 12%
- MK2 kinase activity after 30 min preincubation with inhibitor and 100-fold dilution (MK2): sustained and potent inhibition of kinase activity
- effect on LPS-induced TNF-α, IL-6 and IL-1 mRNA expression [4]: significantly inhibited
- IC50 at 72 h [5]: 30 to 50 µM
